Data published in patent US9986723B2, “Screen and use of therapeutics for pancreatic ductal adenocarcinoma” (The Board of Regents of the University of Texas System, priority 2014, dated 2018).

Assays:
Type in all cases: cell-based, human
Panc-1 cells = assay: In vitro EMT assay (TGF-β and collagen); details: warfarin 2 μM
Protocol: FIGS. 26A-C. […] (FIG. 26A) the expression level of pAxl, Zeb1 and nuclear β-catenin in Panc1 cells in vitro was measured by immunofluorescence under normal culture conditions or after growth on collagen matrix and treatment with TGF-β (20 ng/ml) to induce epithelial to mesenchymal transition, with or without warfarin (2 μM). p-Axl was normalized to total Axl area. (FIG. 26B) Panc1 cells were treated with either SFM, recombinant Gas 6 (100 ng/ml) or Gas6 following pretreatment with 10C9 (mAb anti-Axl). Transition to a mesenchymal phenotype was characterized by changes in vimentin and nuclear Zeb1 expression determined by immunofluoresence. […] (FIG. 26C) Paraffin embedded sections of Panc-1 tumors were analyzed by immunofluorescence for markers of EMT.

Capan-EMT cells = Capan-EMT cells (Capan-1 on collagen with TGFβ), ICC; details: SFM overnight
Protocol: FIGS. 32A-C. Acquisition of Axl expression sensitizes Capan-EMT cells to warfarin. (FIG. 32A) Capan-1 cells cultured on collagen were analyzed by flow cytometry for Axl expression. The positive gate was set using a control IgG and 10C9 was used to detect Axl. […] (FIG. 32B) Capan-EMT cells were cultured in SFM overnight in the absence (control) or presence of warfarin and expression Axl, E-Cadherin, and cleaved caspase 3 was determined by ICC. Representative images are shown. (FIG. 32C) The expression Zeb1, Snail, and Twist was determined by qPCR in Capan-1 and Capan-EMT cells.
In vitro epithelial to mesenchymal transition assays. In vitro, mesenchymal transition was induced by incubating cells on chamber slides coated with collagen and adding TGF-β (20 ng/ml) to media with 5% serum for 48 hours. Media was then replaced with 1% serum and fresh TGF-β with or without warfarin (2 μM) for an additional 48 hours. Cells were the evaluated by immunocytochemistry by fixing in acetone, permeabilizing with 0.5% Brij, and incubating overnight with primary antibody: Axl, p-Axl, (R&D Systems); Vimentin (phosphoSolutions); Zeb1, E-Cadherin, and β-Catenin (Santa Cruz). The effect of Gas6 signaling on EMT was evaluated by seeding cells overnight and incubating with Gas6 (100 ng/ml) with or without warfarin for 48 hours. Cells were evaluated by ICC as described.

[1] = test system: AsPC-1, Mia PaCa-2, and Capan-1 cells; assay: Soft agar anchorage-independent growth assay; details: warfarin 2 μM, 14 days; Axl-expressing cells
Protocol: FIGS. 25A-I. Axl inhibition reduces colony formation and enhances chemotherapy. (FIGS. 25A-C) parental Mia PaCa-2 cells or Mia PaCa-2 cells stably transfected with shRNA targeting Axl (Mia shAxl) were grown as spheroids in matrigel for 7 days in the presence or absence of warfarin (200 ng/ml), n=4/condition. Mia PaCa-2 cell colonies form large stellate colonies characteristic of invasive tumor growth. Colonies and cognate cell projections were imaged (FIG. 25A) with a Nikon Phase contrast microscope using 40× and 200× magnification. Mean total colony number (FIG. 25B) and total colony area+/−s.d. (FIG. 25C) reflective of invasive growth were calculated using Image J image analysis. Scale bar, 100 μm. ****, p<0.001 vs Mia PaCa-2 NT; ##, p<0.01; ###, p<0.005. by ANOVA with Tukey's MCT. […] (FIG. 25E) liver metastases were quantified after intrasplenic injection of C5LM2 cells. […] Mice were sacrificed when control treated animals were moribund and primary and metastatic burden was determined. […]
Anchorage-independent growth assays were performed by coating 12 well plates with 0.5-0.75% agar. […] Fresh media and drug were added twice weekly and colonies were measured by light microscopy at 2 weeks; assays were performed in quadruplicate.

CC(=O)CC(c1ccccc1)c1c(O)c2ccccc2oc1=O (racemic) [Warfarin]
Zeb1 and nuclear β-catenin levels (Panc-1 cells; TGF-β 20 ng/ml, collagen): significantly reduced | TGFβ and collagen I enhanced Axl expression and activation (Panc-1 cells): blocked | sensitivity to warfarin (Axl, E-cadherin, cleaved caspase-3) (Capan-EMT cells): sensitive | anchorage independent growth [1]: inhibited
